Assay [1] addresses T1, HIS-KRAS (G12C, aa 2-185) (Homo sapiens, UniProt P01116, G12C).
T1 construct: HIS-KRAS (G12C, aa 2-185, Sino biological); purchased Sino biological
Put plainly: KRas G12C binding assay (TR-FRET, SOS1-mediated BODIPY FL GTP nucleotide exchange). To be noted: GDP-loaded HIS-KRAS (G12C) 3 nM, 1 hour pre-incubation with compound, 4 hours with SOS1 ExD and BODIPY FL GTP at 25° C. As to the method:
Biological Example 1: KRas G12C Binding Assay
(§1) HIS-KRAS (G12C, aa 2-185, Sino biological) was diluted to 5 uM in EDTA buffer (20 mM HEPES, pH 7.4, 50 mM NaCl, 10 mM EDTA, 0.01% (v/v) Tween-20) and incubated for 30 min at 25° C. The EDTA pretreated HIS-KRAS (G12C) was diluted to 12 nM in assay buffer (25 mM HEPES, pH 7.4, 120 mM NaCl, 5 mM MgCl 2, 1 mM DTT, 0.01% (v/v) Tween 20, 0.1% (w/v) BSA) containing 120 nM GDP (Sigma) and MAb Anti 6HIS—Tb cryptate Gold (Cisbio) and incubated for 1 hour at 25° C. to prepare GDP-loaded HIS-KRAS (G12C). The GDP-loaded HIS-KRAS (G12C) was pre-incubation with diluted compounds in a 384-well plate (Greiner) for 1 hour, then purified SOS1 ExD (Flag tag, aa 564-1049) and BODIPY™ FL GTP (Invitrogen) were added to the assay wells (Final concentration: 3 nM HIS-KRAS (G12C), 2 uM SOS1 ExD, 80 nM BODIPY™ FL GTP, 21 ng/mL MAb Anti 6HIS—Tb cryptate Gold) and incubated for 4 hours at 25° C. TR-FRET signals were then read on Tecan Spark multimode microplate reader. The parameters were F486: Excitation 340 (35) nm, Emission 486 (10) nm, Lag time 100 μs, Integration time 200 μs; F515: Excitation 340 (35) nm, Emission 515 (10) nm, Lag time 100 μs, Integration time 200 μs. TR-FRET ratios for each individual wells were calculated by equation: TR-FRET ratio=(Signal F515/Signal F486)*10000. Then the data were analyzed using a 4-parameter logistic model to calculate IC50 values. The following table lists the IC50 values of certain compounds of the invention.
On the technique in general: Time-resolved FRET reads energy transfer from a long-lived donor to a nearby acceptor.

The next assay has as its target HIS-KRAS (G12V) (Homo sapiens, UniProt P01116, G12V). The assay can be described thus: KRas G12V binding assay (TR-FRET, SOS1-mediated BODIPY FL GTP nucleotide exchange). The note with it: GDP-loaded HIS-KRAS (G12V) 3 nM, 1 hour pre-incubation with compound, 4 hours with SOS1 ExD and BODIPY FL GTP at 25° C. As to the method: Biological Example 3: KRas G12V Binding Assay
as §1, with “(G12V)” for “(G12C, aa 2-185, Sino biological)”, “(G12V)” for “(G12C)”, “(G12V).” for “(G12C).”, “(G12V),” for “(G12C),”

In assay [2] the target is T2, GDP-loaded, histidine-tagged, truncated (1-169) KRAS G12C (Homo sapiens, UniProt P01116, G12C).
T2 construct: histidine-tagged, truncated (1-169) KRAS proteins; His
T2 sequence (P01116 1-169 isoform P01116-2 G12C): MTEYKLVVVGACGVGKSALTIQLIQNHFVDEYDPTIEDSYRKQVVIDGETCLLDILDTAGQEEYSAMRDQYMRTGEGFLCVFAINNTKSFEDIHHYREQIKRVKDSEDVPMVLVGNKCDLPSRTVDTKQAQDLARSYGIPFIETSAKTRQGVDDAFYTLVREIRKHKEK
Put plainly: KRas G12C in vitro covalent MS-based assay. It counts as binding. To be noted: KRAS protein 2 uM, denaturing SEC-MS intact mass. As to the method: Biological Example 2: KRas G12C In Vitro Covalent MS-Based Assay
GDP-loaded, histidine-tagged, truncated (1-169) KRAS proteins (G12C, WT, G13D, as indicated) at 2 uM final concentration were incubated with the test compounds at the doses and time points indicated in a buffer containing 20 mmol/L HEPES pH 7.5, 150 mmol/L NaCl, 1 mmol/L MgCl 2, and 1 mmol/L DTT. Reactions were quenched by adding formic acid to 0.2%. Samples were buffer exchanged and analyzed by denaturing SEC-MS (Orbitrap Eclipse), Mobile phase: 30% ACN, 0.1% formic acid, 0.02% TFA. Raw data were analyzed by charge state deconvolution with BioPharma Finder 4.1 Intact Mass, ReSpect and Sliding Window algorithms. The masses were calculated via software for KRAS_G12C theoretical sequence and experimental compounds.

By pIC50 is commonly meant −log10 of the IC50, conventionally taken in molar units.

pIC50: −log10 of the molar value.

Chain of HIS-KRAS (G12V) (P01116 1-188 isoform P01116-2 G12V): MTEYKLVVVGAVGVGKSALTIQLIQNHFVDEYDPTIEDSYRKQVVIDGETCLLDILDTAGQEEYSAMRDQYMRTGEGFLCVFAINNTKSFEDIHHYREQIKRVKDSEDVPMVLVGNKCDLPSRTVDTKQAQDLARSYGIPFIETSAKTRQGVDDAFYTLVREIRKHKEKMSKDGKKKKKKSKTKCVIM
T1 sequence (P01116 2-185 isoform P01116-2 G12C): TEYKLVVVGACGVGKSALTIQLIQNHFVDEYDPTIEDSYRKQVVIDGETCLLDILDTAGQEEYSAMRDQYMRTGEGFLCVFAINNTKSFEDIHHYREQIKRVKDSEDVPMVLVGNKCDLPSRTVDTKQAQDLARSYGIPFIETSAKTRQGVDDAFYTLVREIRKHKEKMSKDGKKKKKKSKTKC

As for `C#Cc1c(F)ccc2cc(O)cc(-c3ncc4c(N(C)C[C@@H]5CCCN5C(=O)C=C)nc(OC[C@@]56CCCN5C[C@H](F)C6)nc4c3F)c12` [Example 2, 1-[(2S)-2-{[(2-{[(2R,7aS)-2-fluoro-hexahydropyrrolizin-7a-yl]methoxy}-7-(8-ethynyl-7-fluoro-3-hydroxynaphthalen-1-yl)-8-fluoropyrido[4,3-d]pyrimidin-4-yl)(methyl)amino]methyl}pyrrolidin-1-yl]prop-2-en-1-one], the results for the negative logarithm of the IC50 (pIC50) (in assay [1]; on HIS-KRAS (G12V)) were 9.39 and 9.27, respectively. Besides, the “Binding Model” value in assay [2] is reported as “Covalent binding”.
Turning to `C#Cc1c(F)ccc2cc(O)cc(-c3ncc4c(N5C[C@H]6CC[C@@H](C5)N6C(=O)C=C)nc(OCC56CCCN5CCC6)nc4c3F)c12` [Example 5, 1-((1R,5S)-3-(7-(8-ethynyl-7-fluoro-3-hydroxynaphthalen-1-yl)-8-fluoro-2-((tetrahydro-1H-pyrrolizin-7a(5H)-yl)methoxy)pyrido[4,3-d]pyrimidin-4-yl)-3,8-diazabicyclo[3.2.1]octan-8-yl)prop-2-en-1-one], the pIC50 in assay [1] is 9.43; on HIS-KRAS (G12V), 9.72. Besides, the “Binding Model” value in assay [2] is recorded as “Covalent binding”.
For `C#Cc1c(F)ccc2cc(O)cc(-c3ncc4c(NCC5(N(C)C(=O)C=C)CCC5)nc(OCC56CCCN5CCC6)nc4c3F)c12` [Example 10, N-(1-(((7-(8-ethynyl-7-fluoro-3-hydroxynaphthalen-1-yl)-8-fluoro-2-((tetrahydro-1H-pyrrolizin-7a(5H)-yl)methoxy)pyrido[4,3-d]pyrimidin-4-yl)amino)methyl)cyclobutyl)-N-methylacrylamide], the pIC50 in assay [1] is 8.57; on HIS-KRAS (G12V), 8.29.
In the same order, the values of `C#Cc1c(F)ccc2cc(O)cc(-c3ncc4c(NCC5(N(C)C(=O)C=C)CCCC5)nc(OCC56CCCN5CCC6)nc4c3F)c12` [Example 11, N-(1-(((7-(8-ethynyl-7-fluoro-3-hydroxynaphthalen-1-yl)-8-fluoro-2-((tetrahydro-1H-pyrrolizin-7a(5H)-yl)methoxy)pyrido[4,3-d]pyrimidin-4-yl)amino)methyl)cyclopentyl)-N-methylacrylamide] are 8.80 and 8.46.
As for `C#Cc1c(F)ccc2cc(O)cc(-c3ncc4c(N5C[C@H]6CC[C@@H](C5)N6C(=O)C=C)nc(OC[C@@]5(C)C[C@@H](F)CN5C)nc4c3F)c12` [Example 14, 1-((1R,5S)-3-(7-(8-ethynyl-7-fluoro-3-hydroxynaphthalen-1-yl)-8-fluoro-2-(((2R,4R)-4-fluoro-1,2-dimethylpyrrolidin-2-yl)methoxy)pyrido[4,3-d]pyrimidin-4-yl)-3,8-diazabicyclo[3.2.1]octan-8-yl)prop-2-en-1-one], the negative-log IC50 (pIC50) in assay [1] was 9.00.
With `C#Cc1c(F)ccc2cc(O)cc(-c3ncc4c(N5C[C@H]6CC[C@@H](C5)N6C(=O)C=C)nc(N5CC(N(C)C)C5)nc4c3F)c12` [Example 4, 1-((1R,5S)-3-(2-(3-(dimethylamino)azetidin-1-yl)-7-(8-ethynyl-7-fluoro-3-hydroxynaphthalen-1-yl)-8-fluoropyrido[4,3-d]pyrimidin-4-yl)-3,8-diazabicyclo[3.2.1]octan-8-yl)prop-2-en-1-one], the pIC50 in assay [1] was 8.48; at HIS-KRAS (G12V) it was 7.02.
Regarding `C#Cc1c(F)ccc2cc(O)cc(-c3ncc4c(N5C[C@H]6CC[C@@H](C5)N6C(=O)C=C)nc(OC[C@@H]5CCCCN5C)nc4c3F)c12` [Example 7, 1-((1R,5S)-3-(7-(8-ethynyl-7-fluoro-3-hydroxynaphthalen-1-yl)-8-fluoro-2-(((S)-1-methylpiperidin-2-yl)methoxy)pyrido[4,3-d]pyrimidin-4-yl)-3,8-diazabicyclo[3.2.1]octan-8-yl)prop-2-en-1-one], the pIC50 in assay [1] is 9.39; at HIS-KRAS (G12V), 8.23.
In the same order, the values of `C#Cc1cccc2cc(O)cc(-c3ncc4c(N5CC6CCC(C5)N6C(=O)C=C)nc(OC[C@@]56CCCN5C[C@H](F)C6)nc4c3F)c12` [Example 1, 1-[3-(2-{[(2R,7aS)-2-fluoro-hexahydropyrrolizin-7a-yl]methoxy}-7-(8-ethynyl-3-hydroxynaphthalen-1-yl)-8-fluoropyrido[4,3-d]pyrimidin-4-yl)-3,8-diazabicyclo[3.2.1]octan-8-yl]prop-2-en-1-one] are 7.98 and 8.36.
On the same counts, the results for `C#Cc1c(F)ccc2cccc(-c3ncc4c(N5C[C@H]6CC[C@@H](C5)N6C(=O)C=C)nc(OCC56CCCN5CCC6)nc4c3F)c12` [Example 3, 1-((1R,5S)-3-(7-(8-ethynyl-7-fluoronaphthalen-1-yl)-8-fluoro-2-((tetrahydro-1H-pyrrolizin-7a(5H)-yl)methoxy)pyrido[4,3-d]pyrimidin-4-yl)-3,8-diazabicyclo[3.2.1]octan-8-yl)prop-2-en-1-one] are 8.50 and 7.41.
In the same order, the values of `C#Cc1c(F)ccc2cc(O)cc(-c3ncc4c(N5C[C@H]6CC[C@@H](C5)N6C(=O)C=C)nc(OC[C@@H]5CCCN5C)nc4c3F)c12` [Example 6, 1-((1R,5S)-3-(7-(8-ethynyl-7-fluoro-3-hydroxynaphthalen-1-yl)-8-fluoro-2-(((S)-1-methylpyrrolidin-2-yl)methoxy)pyrido[4,3-d]pyrimidin-4-yl)-3,8-diazabicyclo[3.2.1]octan-8-yl)prop-2-en-1-one] are 9.44 and 9.42.
For `C#Cc1c(F)ccc2cc(O)cc(-c3ncc4c(N5C[C@H]6CC[C@@H](C5)N6C(=O)C=C)nc(OC[C@]5(C)C[C@@H](F)CN5C)nc4c3F)c12` [Example 13, 1-((1R,5S)-3-(7-(8-ethynyl-7-fluoro-3-hydroxynaphthalen-1-yl)-8-fluoro-2-(((2S,4R)-4-fluoro-1,2-dimethylpyrrolidin-2-yl)methoxy)pyrido[4,3-d]pyrimidin-4-yl)-3,8-diazabicyclo[3.2.1]octan-8-yl)prop-2-en-1-one], the values for the pIC50 (in assay [1]; at HIS-KRAS (G12V)) were 9.02 and 7.86, respectively.
Turning to `C#Cc1c(F)ccc2cc(O)cc(-c3ncc4c(N5C[C@H]6CC[C@@H](C5)N6C(=O)C=C)nc(OC[C@]5(C)CCCN5C)nc4c3F)c12` [Example 12, 1-((1R,5S)-3-(2-(((S)-1,2-dimethylpyrrolidin-2-yl)methoxy)-7-(8-ethynyl-7-fluoro-3-hydroxynaphthalen-1-yl)-8-fluoropyrido[4,3-d]pyrimidin-4-yl)-3,8-diazabicyclo[3.2.1]octan-8-yl)prop-2-en-1-one], the negative logarithm of the IC50 (pIC50) is 8.82 in assay [1] and 7.30 at HIS-KRAS (G12V).
